# Source: patent publication US20120202794A1 (priority 2011, published 2012)
# Key:
# [1] = system: HCV Replicon 1b; assay: HCV inhibition assay, HCV replicon 1b (Clone A or ET-lunet cells; RT-PCR or luciferase reporter); format: cell-based; conditions: Hepatitis C virus, 96 h, HCV replicon 1b; 4 days incubation; read-out: Replicon 1b potency EC90
# Procedure: HCV inhibition assay. Clone A or ET-lunet cells were seeded at a density of 1500 or 3000 cells per well in a 96-well plate, respectively. Test compounds serially diluted in culture medium without G418 were added to cells so that the final DMSO concentration was 0.5%. Plates were incubated at 37° C. in a 5% CO2 atmosphere for 4 days. Inhibition of HCV RNA replication was determined by real time PCR (RT-PCR) or by measuring the levels of luminescence expressed via the luciferase reporter gene encoded within the ET replicon. Briefly, for the RT-PCR assay, total RNA was extracted using the RNeasy-96 kit as recommended by the manufacturer (Qiagen, Valencia, Calif.), reversed transcribed into cDNA, and amplified using primer and probe mix for HCV 5′-NTR RNA and human ribosomal RNA (rRNA) in a one-step RT-PCR reaction as described previously (50). A relative quantification method was used to determine the extent of inhibition. The threshold cycle (Ct) of rRNA was subtracted from the Ct of HCV RNA (ΔCt). The average ΔCt of the DMSO cell controls was then subtracted from the ΔCt of the compound treated sample (ΔΔCt). Percent inhibition was determined by using the following equation: %=(1−(2^−ΔΔC^t))×100. For the luciferase-based replicon assay, luminescence was measured by using a Victor3 plate reader (Perkin-Elmer, Boston, Mass.) following the addition of Bright-Glo reagent as recommended by the manufacturer (Promega, Madison, Wis.). Percent inhibition of HCV replication was determined by comparing the change in luminescence of the drug treated wells versus the DMSO cell controls. EC50 and EC90 values, the concentrations at which 50% and 90% inhibition were achieved, were determined using the GraphPad Prism software (San Diego, Calif.).
# [2] = Cell cytotoxicity assay (MTS), CC90 as reported in Table 1, cell line not stated; format: cell-based; conditions: human, cell line not given
# Procedure: Cell cytotoxicity assays. Each compound (serially diluted from 100 μM) was added to Huh7 (2×10^3 cells/well), HepG2 (2×10^3 cells/well), BxPC3 (2×10^3 cells/well), or CEM (5×10^3 cells/well) cells and allowed to incubate for 8 days at 37° C. A medium only control was used to determine the minimum absorbance value […]. At the end of the growth period, MTS dye from the CellTiter 96 Aqueous One Solution Cell Proliferation Assay kit (Promega) was added to each well and the plate was incubated for an additional 2 hours. The absorbance at 490 nm was read with a Victor3 plate reader (Perkin Elmer) using the medium only control wells as blanks. The 90% inhibition value (CC90) was determined by comparing the absorbance in wells containing cells and test compound to untreated cell control wells.
SMILES,EC90 [1] [µM],"CC90 at 8 days ([2]; MTS assay, 8 days incubation) [µM]",CC90 at 8 days [2] [µM]
"CSCCC1C(=O)N[C@@H](c2ccccc2)CN1C(=O)c1cc(-c2ccc(F)cc2)on1 (stereo in doubt) [Compound 458, (3R,6S)-4-(5-(4-fluorophenyl)isoxazole-3-carbonyl)-3-((methylthio)ethyl)-6-phenylpiperazin-2-one]",2.07,> 10,
"CC(C)C[C@H]1C(=O)NC(c2ccccc2)N1C(=O)[C@H]1C[C@@H]1c1ccccc1 (stereo in doubt) [Compound 531, (2R,5S)-5-isobutyl-2-phenyl-1-((1S,2S)-2-phenylcyclopropanecarbonyl)imidazolidin-4-one]",> 10,> 10,
"CC(C)C[C@H]1C(=O)NC(c2ccccc2)N1C(=O)[C@H]1C[C@@H]1c1ccc(F)cc1 (stereo in doubt) [Compound 533, (2R,5S)-1-((1S,2S)-2-(4-fluorophenyl)cyclopropane-carbonyl)-5-isobutyl-2-phenyl-imidazolidin-4-one]",> 10,> 10,
CC(C)C[C@H]1CN(C(=O)[C@@H]2C[C@H]2c2ccccc2)[C@@H](CC(C)C)C(=O)N1 [Compound 70],0.8,,> 10
CC(C)C[C@H]1CN(C(=O)/C=C/c2ccc(Cl)cc2)[C@@H](CC(C)C)C(=O)N1 [Compound 72],2.5,,> 10
CC(C)C[C@H]1CN(C(=O)/C=C/c2ccc(C(F)(F)F)cc2)[C@@H](CC(C)C)C(=O)N1 [Compound 73],3.34,,> 10
CC(C)C[C@H]1CN(C(=O)/C=C/c2cccnc2)[C@@H](CC(C)C)C(=O)N1 [Compound 74],> 10,,> 10
C/C(=C\C(=O)N1C[C@H](CC(C)C)NC(=O)[C@@H]1CC(C)C)c1ccccc1 [Compound 75],> 10,,> 10
CC(C)C[C@H]1CN(C(=O)c2cc3ccccc3o2)[C@@H](CC(C)C)C(=O)N1 [Compound 76],9.18,,> 10
CC(C)C[C@H]1CN(C(=O)/C=C/c2ccccc2)[C@@H](CC(C)C)C(=O)N1 [Compound 77],3.24,,> 10
C/C(=C\c1ccccc1)C(=O)N1C[C@H](CC(C)C)NC(=O)[C@@H]1CC(C)C [Compound 78],9.93,,> 10
Cc1ccc(/C=C/C(=O)N2C[C@H](CC(C)C)NC(=O)[C@@H]2CC(C)C)cc1 [Compound 79],5.29,,> 10
CC(C)C[C@H]1CN(C(=O)/C=C/c2ccc(F)cc2)[C@@H](CC(C)C)C(=O)N1 [Compound 80],2.49,,> 10
CC(C)C[C@H]1CN(C(=O)/C=C/c2ccc(Cl)c(Cl)c2)[C@@H](CC(C)C)C(=O)N1 [Compound 81],7.31,,> 10
CC(C)C[C@H]1CN(C(=O)/C=C/c2ccc(F)c(F)c2)[C@@H](CC(C)C)C(=O)N1 [Compound 82],1.22,,> 10
CC(C)C[C@H]1CN(C(=O)/C=C/c2cccc(F)c2)[C@@H](CC(C)C)C(=O)N1 [Compound 83],2.91,,> 10
CC(C)C[C@H]1CN(C(=O)/C=C/c2cc(F)c(F)c(F)c2)[C@@H](CC(C)C)C(=O)N1 [Compound 84],2.64,,> 10
CC(C)C[C@H]1CN(C(=O)/C=C/c2ccc(F)c(Cl)c2)[C@@H](CC(C)C)C(=O)N1 [Compound 85],8.65,,> 10
CC(C)C[C@H]1CN(C(=O)/C=C/c2ccc(Cl)cc2F)[C@@H](CC(C)C)C(=O)N1 [Compound 86],0.59,,> 10
CC(C)C[C@H]1CN(C(=O)/C=C/c2ccc(F)cc2F)[C@@H](CC(C)C)C(=O)N1 [Compound 87],0.57,,> 10
Cc1cccc(C)c1NC(=O)CN1C[C@H](CC(C)C)NC(=O)[C@@H]1CC(C)C [Compound 88],> 10,,> 10
CC(C)C[C@H]1CN(C(=O)c2ccc(Oc3ccccc3)cc2)[C@@H](CC(C)C)C(=O)N1 [Compound 89],6.88,,> 10
CC(C)C[C@H]1CN(C(=O)/C=C/c2ccc3c(c2)OCO3)[C@@H](CC(C)C)C(=O)N1 [Compound 90],7.72,,> 10
CC(C)C[C@H]1CN(C(=O)/C=C/c2ccc([N+](=O)[O-])cc2)[C@@H](CC(C)C)C(=O)N1 [Compound 91],> 10,,> 10

SMILES,EC90 [1] [µM],"CC90 at 8 days ([2]; MTS assay, 8 days incubation) [µM]",CC90 at 8 days [2] [µM]
CC(C)C[C@H]1CN(C(=O)/C=C/c2ccc(S(C)(=O)=O)cc2)[C@@H](CC(C)C)C(=O)N1 [Compound 92],> 10,,> 10
CC(C)C[C@H]1CN(C(=O)/C=C/c2ccc(C(F)(F)F)cc2F)[C@@H](CC(C)C)C(=O)N1 [Compound 93],9.62,,> 10
CC(C)C[C@H]1CN(C(=O)/C=C/c2ccc(-c3ccccc3)cc2)[C@@H](CC(C)C)C(=O)N1 [Compound 94],8.37,,> 10
CC(C)C[C@H]1CN(C(=O)/C=C/c2cc(F)cc(F)c2)[C@@H](CC(C)C)C(=O)N1 [Compound 95],9.31,,> 10
CCC[C@H]1CN(C(=O)/C=C/c2ccc(F)cc2F)[C@@H](CC(C)C)C(=O)N1 [Compound 96],1.11,,> 10
CC(C)C[C@H]1CN(C(=O)c2ccc(-c3ccccc3)o2)[C@@H](CC(C)C)C(=O)N1 [Compound 97],7.28,,> 10
CC(C)C[C@H]1CN(C(=O)c2csc(-c3ccccc3)n2)[C@@H](CC(C)C)C(=O)N1 [Compound 98],7.92,,> 10
CC(C)C[C@H]1CN(C(=O)c2coc(-c3ccccc3)n2)[C@@H](CC(C)C)C(=O)N1 [Compound 99],> 10,,> 10
CC(C)C[C@H]1CN(C(=O)c2cc(-c3ccccc3)[nH]n2)[C@@H](CC(C)C)C(=O)N1 [Compound 100],> 10,,> 10
CC(C)C[C@H]1CN(C(=O)c2c[nH]c(-c3ccccc3)n2)[C@@H](CC(C)C)C(=O)N1 [Compound 101],> 10,,> 10
CC(C)C[C@H]1CN(C(=O)c2cn(-c3ccccc3)cn2)[C@@H](CC(C)C)C(=O)N1 [Compound 102],> 10,,> 10
CC(C)C[C@H]1CN(C(=O)c2cn(-c3ccc(F)cc3)cn2)[C@@H](CC(C)C)C(=O)N1 [Compound 103],8.64,,> 10
CC(C)C[C@H]1CN(C(=O)c2cnn(-c3ccc(F)cc3)c2)[C@@H](CC(C)C)C(=O)N1 [Compound 104],4.74,,> 10
CC(C)C[C@H]1CN(C(=O)c2cc(-c3ccc(Cl)cc3)ns2)[C@@H](CC(C)C)C(=O)N1 [Compound 105],1.49,,> 10
CC(C)C[C@H]1CN(C(=O)c2cc(C3CC3)on2)[C@@H](CC(C)C)C(=O)N1 [Compound 106],8.77,,> 10
CCc1cc(C(=O)N2C[C@H](CC(C)C)NC(=O)[C@@H]2CC(C)C)no1 [Compound 107],8.41,,> 10
CC(C)C[C@H]1CN(C(=O)c2cc(-c3ccccc3)on2)[C@@H](CC(C)C)C(=O)N1 [Compound 108],0.52,,> 10
CC(C)C[C@H]1CN(C(=O)c2cc(-c3cccs3)on2)[C@@H](CC(C)C)C(=O)N1 [Compound 109],0.54,,> 10
CC(C)C[C@H]1C(=O)N[C@@H](c2ccccc2)CN1C(=O)c1cc(-c2cccs2)on1 [Compound 110],0.59,,> 10
CC(C)C[C@H]1C(=O)N[C@@H](C(C)C)CN1C(=O)c1cc(-c2cccs2)on1 [Compound 111],0.8,,> 10
CC(C)C[C@H]1CN(C(=O)c2cc(-c3ccc(Cl)s3)on2)[C@@H](CC(C)C)C(=O)N1 [Compound 112],0.95,,> 10
CC(C)C[C@H]1CN(C(=O)C#Cc2ccc(F)cc2)[C@@H](CC(C)C)C(=O)N1 [Compound 113],3.4,,> 10
"CC(C)C[C@H]1C(=O)N[C@@H](C2CCCC2)CN1C(=O)[C@@H]1C[C@H]1c1ccc(Br)cc1 [Compound 332, (3S,6S)-6-cyclopentyl-4-((1R,2R)-2-(4-bromophenyl)cyclopropanecarbonyl)-3-isobutylpiperazin-2-one]",1.31,,
